Measurements reported in ChEMBL document CHEMBL5523741, “Development of an Orally Bioavailable LCK PROTAC Degrader as a Potential Therapeutic Approach to T-Cell Acute Lymphoblastic Leukemia” (J Med Chem, 2024).
Converted amounts (≈) assume the structure as drawn. The source made the active and inactive calls. No cut-off for these calls is given here.

How the values were obtained:
[1] = Metabolic stability in mouse liver microsomes assessed as half life in presence of NADPH by UPLC-MS/MS analysis; assay type: ADME, Microsome
[2] = biological target: T1, Protein cereblon/Tyrosine-protein kinase Lck (Homo sapiens, UniProt P06239+Q96SW2); assay: PROTAC activity at HiBit-tagged LCK/CRBN in human KOPT-K1 cells assessed as induction of LCK degradation incubated for 6 hrs by Nano-Glo HiBiT assay relative to control; assay type: cell-based
Target sequence in this assay (P06239 2-509 limits assumed): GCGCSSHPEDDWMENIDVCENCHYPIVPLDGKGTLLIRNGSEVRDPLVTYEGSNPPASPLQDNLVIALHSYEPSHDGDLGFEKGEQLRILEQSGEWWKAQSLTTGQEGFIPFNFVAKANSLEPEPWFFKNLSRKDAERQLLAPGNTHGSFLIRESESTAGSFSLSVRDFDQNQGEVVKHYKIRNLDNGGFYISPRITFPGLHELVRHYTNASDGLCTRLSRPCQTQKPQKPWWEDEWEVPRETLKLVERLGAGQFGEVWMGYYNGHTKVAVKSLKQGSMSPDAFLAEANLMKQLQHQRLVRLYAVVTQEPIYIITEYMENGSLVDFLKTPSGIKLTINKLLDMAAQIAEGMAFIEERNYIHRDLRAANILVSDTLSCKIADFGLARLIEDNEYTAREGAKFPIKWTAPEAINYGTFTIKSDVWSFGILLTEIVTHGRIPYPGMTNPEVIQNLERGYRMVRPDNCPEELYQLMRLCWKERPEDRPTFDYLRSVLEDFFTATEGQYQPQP
Target sequence in this assay (Q96SW2 whole entry partner): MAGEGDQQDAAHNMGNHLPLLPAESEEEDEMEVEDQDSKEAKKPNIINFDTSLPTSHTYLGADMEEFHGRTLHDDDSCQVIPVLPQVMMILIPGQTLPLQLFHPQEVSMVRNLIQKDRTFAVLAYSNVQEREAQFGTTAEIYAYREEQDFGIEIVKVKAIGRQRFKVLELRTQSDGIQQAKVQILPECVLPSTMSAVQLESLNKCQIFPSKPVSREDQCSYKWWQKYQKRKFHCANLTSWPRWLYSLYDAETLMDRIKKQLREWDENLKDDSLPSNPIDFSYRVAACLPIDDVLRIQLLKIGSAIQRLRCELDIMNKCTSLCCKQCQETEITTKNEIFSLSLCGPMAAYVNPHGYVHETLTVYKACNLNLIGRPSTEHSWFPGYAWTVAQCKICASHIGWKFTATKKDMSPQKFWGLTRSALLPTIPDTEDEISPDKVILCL

[3] = Aqueous solubility of the compound incubated for 18 hrs by UPLC-SQDMS; assay type: physicochemical; conditions: buffer
KOPTK1 [4] = assay: Downregulation of CSK in human KOPT-K1 cells measured for 6 hrs by tandem mass tag proteomic assay; assay type: functional, cell-based
KOPTK1 [5] = assay: Antiproliferative activity against human KOPT-K1 cells assessed as inhibition of cell growth at 100 nM measured for 18 hrs by celltiter glo assay; assay type: functional, cell-based
KOPTK1 [6] = assay: Antiproliferative activity against human KOPT-K1 cells assessed as inhibition of cell growth at 100 nM measured for 160 hrs by celltiter glo assay; assay type: functional, cell-based
KOPTK1 [7] = assay: Downregulation of EPHB1 in human KOPT-K1 cells measured for 6 hrs by tandem mass tag proteomic assay; assay type: functional, cell-based
KOPTK1 [8] = assay: Downregulation of CISH in human KOPT-K1 cells measured for 6 hrs by tandem mass tag proteomic assay; assay type: functional, cell-based
[9] = biological target: T1, Protein cereblon/Tyrosine-protein kinase Lck; assay: PROTAC activity at HiBit-tagged LCK/CRBN in human KOPT-K1 cells assessed as induction of LCK degradation incubated for 6 hrs by Nano-Glo HiBiT assay; assay type: cell-based
KOPTK1 [10] = assay: Antiproliferative activity against human KOPT-K1 cells assessed as effect on cell viability measured for 72 hrs by celltiter glo assay; assay type: functional; conditions: read-out: LC50 (the source's name)
KOPTK1 [11] = assay: Downregulation of CK1alpha in human KOPT-K1 cells measured for 6 hrs by tandem mass tag proteomic assay; assay type: functional, cell-based
[12] = biological target: T1, Protein cereblon/Tyrosine-protein kinase Lck; assay: PROTAC activity at HiBit-tagged LCK/CRBN in human KOPT-K1 cells assessed as reduction in LCK level at 0.1 to 1000 nM incubated for 6 hrs immunoblotting analysis; assay type: cell-based; conditions: dose 0.1-1000 nM
Target sequence in this assay (P06239 2-509 limits assumed): as the sequence (P06239 2-509 limits assumed) above
Target sequence in this assay (Q96SW2 whole entry partner): as the sequence (Q96SW2 whole entry partner) above

[13] = Efflux ratio of apparent permeability across basolateral to apical over apical to basolateral in human Caco-2 cells; assay type: ADME, cell-based
[14] = Clearance in CD-1 mouse at 3 mg/kg, iv measured up to 24 hrs; assay type: ADME, organism-based; conditions: in vivo
KOPTK1 [15] = assay: Antiproliferative activity against human KOPT-K1 cells assessed as inhibition of cell growth at 100 nM measured for 280 hrs by celltiter glo assay; assay type: functional, cell-based
[16] = Tmax in CD-1 mouse at 30 mg/kg, po measured up to 24 hrs; assay type: ADME, organism-based; conditions: in vivo
KOPTK1 [17] = assay: Downregulation of GAK in human KOPT-K1 cells measured for 6 hrs by tandem mass tag proteomic assay; assay type: functional, cell-based
[18] = Apparent permeability of compound across apical to basolateral side in human Caco-2 cells; assay type: ADME, cell-based
KOPTK1 [19] = assay: Downregulation of IKZF3 in human KOPT-K1 cells measured for 6 hrs by tandem mass tag proteomic assay; assay type: functional, cell-based
[20] = Half life in CD-1 mouse at 30 mg/kg, po measured up to 24 hrs; assay type: ADME, organism-based; conditions: in vivo
[21] = Apparent permeability of compound across basolateral to apical side in human Caco-2 cells; assay type: ADME, cell-based
[22] = AUClast in CD-1 mouse at 3 mg/kg, iv measured up to 24 hrs; assay type: ADME, organism-based; conditions: in vivo
[23] = Volume of distribution at steady state in CD-1 mouse at 3 mg/kg, iv measured up to 24 hrs; assay type: ADME, organism-based; conditions: in vivo, read-out: Vdss
[24] = Cmax in CD-1 mouse at 30 mg/kg, po measured up to 24 hrs; assay type: ADME, organism-based; conditions: in vivo
KOPTK1 [25] = assay: Downregulation of GSPT1 in human KOPT-K1 cells measured for 6 hrs by tandem mass tag proteomic assay; assay type: functional, cell-based
[26] = AUClast in CD-1 mouse at 30 mg/kg, po measured up to 24 hrs; assay type: ADME, organism-based; conditions: in vivo
Mus musculus [27] = assay: In-vivo PROTAC activity at LCK/CRBN in NOD Cg-Prkdc scid Il2rg tmIWjl (NSG) mouse model assessed as reduction in LCK level in Bone marrow at 30 mg/kg, po measured for 24 hrs by Western blot analysis; assay type: functional; parameters: scale not given: the % may be the effect or the level left
[28] = Cmax in CD-1 mouse at 3 mg/kg, iv measured up to 24 hrs; assay type: ADME, organism-based; conditions: in vivo
[29] = Half life in CD-1 mouse at 3 mg/kg, iv measured up to 24 hrs; assay type: ADME, organism-based; conditions: in vivo
[30] = biological target: T1, Protein cereblon/Tyrosine-protein kinase Lck; assay: PROTAC activity at HiBit-tagged LCK/CRBN in human KOPT-K1 cells assessed as induction of LCK degradation at 0.1 to 1000 nM incubated for 6 hrs by Western blot analysis relative to control; assay type: cell-based; conditions: dose 0.1-1000 nM
Target sequence in this assay (P06239 2-509 limits assumed): as the sequence (P06239 2-509 limits assumed) above
Target sequence in this assay (Q96SW2 whole entry partner): as the sequence (Q96SW2 whole entry partner) above

[31] = Stability in CD-1 mouse plasma assessed as half life; assay type: ADME, cell-free
[32] = biological target: T1, Protein cereblon/Tyrosine-protein kinase Lck; assay: PROTAC activity at HiBit-tagged LCK/CRBN in human KOPT-K1 cells assessed as induction of LCK degradation incubated for 6 hrs by Western blot analysis; assay type: cell-based
Target sequence in this assay (P06239 whole entry): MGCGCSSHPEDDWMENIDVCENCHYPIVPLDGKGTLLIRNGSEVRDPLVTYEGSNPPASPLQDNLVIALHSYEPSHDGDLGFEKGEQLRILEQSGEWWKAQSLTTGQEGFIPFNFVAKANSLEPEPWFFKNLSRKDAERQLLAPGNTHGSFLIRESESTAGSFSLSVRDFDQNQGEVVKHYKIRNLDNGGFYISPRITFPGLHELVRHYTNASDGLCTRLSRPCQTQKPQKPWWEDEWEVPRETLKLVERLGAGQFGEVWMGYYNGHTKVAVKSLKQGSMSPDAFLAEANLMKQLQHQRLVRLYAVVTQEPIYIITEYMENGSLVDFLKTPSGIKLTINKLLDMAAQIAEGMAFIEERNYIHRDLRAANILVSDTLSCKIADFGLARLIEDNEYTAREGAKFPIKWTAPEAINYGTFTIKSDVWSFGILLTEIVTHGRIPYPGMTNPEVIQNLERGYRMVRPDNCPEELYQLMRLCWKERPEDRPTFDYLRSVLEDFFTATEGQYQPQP
Target sequence in this assay (Q96SW2 whole entry): as the sequence (Q96SW2 whole entry partner) above

[33] = Clearance in CD-1 mouse at 30 mg/kg, po measured up to 24 hrs; assay type: ADME, organism-based; conditions: in vivo
KOPTK1 [34] = assay: Downregulation of IKZF1 in human KOPT-K1 cells measured for 6 hrs by tandem mass tag proteomic assay; assay type: functional, cell-based
[35] = Volume of distribution at steady state in CD-1 mouse at 30 mg/kg, po measured up to 24 hrs; assay type: ADME, organism-based; conditions: in vivo
[36] = Oral bioavailability in CD-1 mouse at 30 mg/kg measured up to 24 hrs; assay type: ADME, organism-based; conditions: in vivo
Mus musculus [37] = assay: In-vivo PROTAC activity at LCK/CRBN in NOD Cg-Prkdc scid Il2rg tmIWjl (NSG) mouse model assessed as reduction in LCK level in Bone marrow at 30 mg/kg, po measured for 6 hrs by Western blot analysis; assay type: functional; parameters: scale not given: the % may be the effect or the level left
[38] = Drug concentration in CD-1 mouse plasma at 30 mg/kg, po measured after 4 hrs by UPLC-MS/MS analysis; assay type: ADME, organism-based
KOPTK1 [39] = assay: Downregulation of YES1 in human KOPT-K1 cells measured for 6 hrs by tandem mass tag proteomic assay; assay type: functional, cell-based
KOPTK1 [40] = assay: Downregulation of SIK2 in human KOPT-K1 cells measured for 6 hrs by tandem mass tag proteomic assay; assay type: functional, cell-based

Q: For Cc1nc(Nc2ncc(C(=O)Nc3c(C)cccc3Cl)s2)cc(N2CCC3(CCN(c4ccc(C5CCC(=O)NC5=O)cc4)CC3)CC2)n1 (stereo unspecified), which half-life [1] is on record?
A: The half-life was 2.2 h.

Q: What about the Emax [2] of the same molecule?
A: Its Emax is under 60%.

Q: What does the source list for Cc1nc(Nc2ncc(C(=O)Nc3c(C)cccc3Cl)s2)cc(N2CCN(Cc3ccc(C4CCC(=O)NC4=O)cc3)CC2)n1 (stereo unspecified)?
A: solubility at 18 h [3]: 1.99 µM (≈ 1.28 µg/mL); half-life [1]: 1.23 h; Emax [2]: < 60%

Q: Which solubility at 18 h [3] does the source give for Cc1nc(Nc2ncc(C(=O)Nc3c(C)cccc3Cl)s2)cc(N2CCN(CCCN3CCN(c4ccc(C5CCC(=O)NC5=O)cc4)CC3)CC2)n1 (stereo unspecified) here?
A: Its solubility at 18 h is 2.08 µM (≈ 1.58 µg/mL).

Q: And the half-life [1]?
A: The half-life was 6.9 h.

Q: And the Emax [2]?
A: The Emax was 90%.

Q: With Cc1nc(Nc2ncc(C(=O)Nc3c(C)cccc3Cl)s2)cc(N2CCN(CCO)CC2)n1 as the molecule, how does the Activity (KOPTK1 [4]) read?
A: Its Activity is “Active”.

Q: And the Activity (KOPTK1 [5])?
A: The Activity was “Active”.

Q: What about the Activity (KOPTK1 [6]) of the same molecule?
A: The Activity was “inactive”.

Q: What about the Activity (KOPTK1 [7]) of the same molecule?
A: Its Activity is “Active”.

Q: And the Activity (KOPTK1 [8])?
A: Its Activity is “Active”.

Q: What does the source list for Cc1nc(Nc2ncc(C(=O)Nc3c(C)cccc3Cl)s2)cc(N2CCC(CN3CCN(c4ccc(C5CCC(=O)N(C)C5=O)cc4)CC3)CC2)n1 (stereo unspecified)?
A: Activity [9]: inactive; CC50 (KOPTK1 [10]): 1.98 nM

Q: With Cc1nc(Nc2ncc(C(=O)Nc3c(C)cccc3Cl)s2)cc(N2CCN(CCCC(=O)N3CC4CC3CN4c3ccc(C4CCC(=O)NC4=O)cc3)CC2)n1 (stereo unspecified) as the molecule, how does the solubility at 18 h [3] read?
A: The solubility at 18 h was 0.19 µM (≈ 0.152 µg/mL).

Q: And the half-life [1]?
A: Its half-life is 0.32 h.

Q: And the Emax [2]?
A: Its Emax is 90%.

Q: What does the source list for Cc1nc(Nc2ncc(C(=O)Nc3c(C)cccc3Cl)s2)cc(N2CCN(CCCC(=O)N3CCC(CN4CCN(c5ccc(C6CCC(=O)NC6=O)cc5)CC4)CC3)CC2)n1 (stereo unspecified)?
A: solubility at 18 h [3]: 0.65 µM (≈ 0.574 µg/mL); half-life [1]: 0.67 h; Emax [2]: 84%

Q: With Cc1nc(Nc2ncc(C(=O)Nc3c(C)cccc3Cl)s2)cc(N2CCC(CN3CCN(c4ccc(C5CCC(=O)NC5=O)cc4)CC3)CC2)n1 (stereo unspecified) as the molecule, how does the Activity (KOPTK1 [11]) read?
A: Its Activity is “inactive”.

Q: What about the Activity [12] of the same molecule?
A: Its Activity is “Active”.

Q: What about the efflux ratio [13] of the same molecule?
A: Its efflux ratio is 3.75.

Q: And the clearance [14]?
A: Its clearance is 14 mL/min/kg.

Q: What about the Activity (KOPTK1 [15]) of the same molecule?
A: Its Activity is “Active”.

Q: And the Tmax [16]?
A: The Tmax was 1 h.

Q: And the DC50 [9]?
A: The DC50 was 17.5 nM.

Q: What about the Activity (KOPTK1 [17]) of the same molecule?
A: The Activity was “inactive”.

Q: And the Activity (KOPTK1 [4])?
A: Its Activity is “Active”.

Q: What about the Papp A→B [18] of the same molecule?
A: The Papp A→B was 0.302 ×10⁻⁶ cm/s.

Q: What about the Activity (KOPTK1 [19]) of the same molecule?
A: The Activity was “inactive”.

Q: What about the half-life [20] of the same molecule?
A: The half-life was 3.05 h.

Q: And the Papp B→A [21]?
A: Its Papp B→A is 1.13 ×10⁻⁶ cm/s.

Q: What about the AUC(0-t) at 24 h [22] of the same molecule?
A: Its AUC(0-t) at 24 h is 3560 ng·h/mL.

Q: And the Vd [23]?
A: Its Vd is 3.51 L/kg.

Q: And the Cmax [24]?
A: The Cmax was 2240 ng/mL.

Q: And the Activity (KOPTK1 [25])?
A: The Activity was “inactive”.

Q: And the AUC(0-t) at 24 h [26]?
A: The AUC(0-t) at 24 h was 20700 ng·h/mL.

Q: And the half-life [1]?
A: The half-life was 2 h.

Q: And the Activity (Mus musculus [27])?
A: The Activity was 5%.

Q: And the Cmax [28]?
A: The Cmax was 1450 ng/mL.

Q: What about the half-life [29] of the same molecule?
A: Its half-life is 3.51 h.

Q: And the Emax [30]?
A: Its Emax is 98%.

Q: What about the Emax [2] of the same molecule?
A: Its Emax is 77%.

Q: And the half-life [31]?
A: Its half-life is 45.2 h.

Q: What about the Activity (KOPTK1 [5]) of the same molecule?
A: The Activity was “Active”.

Q: And the DC50 [32]?
A: The DC50 was 1.21 nM.

Q: And the CL/F [33]?
A: The CL/F was 24 mL/min/kg.

Q: And the Activity (KOPTK1 [34])?
A: Its Activity is “inactive”.

Q: What about the Activity (KOPTK1 [7]) of the same molecule?
A: The Activity was “Active”.

Q: What about the Vdss [35] of the same molecule?
A: The Vdss was 6.34 L/kg.

Q: What about the bioavailability [36] of the same molecule?
A: The bioavailability was 58%.

Q: And the Activity (Mus musculus [37])?
A: Its Activity is 10%.

Q: What about the concentration at 4 h [38] of the same molecule?
A: The concentration at 4 h was 3290 ng/mL.

Q: What about the CC50 (KOPTK1 [10]) of the same molecule?
A: The CC50 was 20.1 nM.

Q: What about the Activity (KOPTK1 [39]) of the same molecule?
A: The Activity was “inactive”.

Q: What about the Activity (KOPTK1 [40]) of the same molecule?
A: Its Activity is “inactive”.

Q: And the Activity (KOPTK1 [8])?
A: Its Activity is “Active”.

Q: What does the source list for Cc1nc(Nc2ncc(C(=O)Nc3c(C)cccc3Cl)s2)cc(N2CCN(CCCN3CCC(c4ccc(C5CCC(=O)NC5=O)cc4)CC3)CC2)n1 (stereo unspecified)?
A: solubility at 18 h [3]: 2.57 µM (≈ 1.94 µg/mL); Papp A→B [18]: 1.04 ×10⁻⁶ cm/s; Papp B→A [21]: 9.82 ×10⁻⁶ cm/s; half-life [1]: 10 h; Emax [2]: 87%; half-life [31]: 4.98 h; concentration at 4 h [38]: 54 ng/mL
